Converted amounts (≈) assume the structure as drawn.
Tests used:
E. coli ATCC25992 = experiment: Broth microdilution MIC (NCCLS); format: cell-based; details: Escherichia coli
Procedure: (§1) Compounds were evaluated for antimicrobial activity against a panel of bacterial strains using a broth microdilution assay performed as recommended by the NCCLS (1). The minimum inhibitory concentration (MIC) was defined as the lowest concentration of drug which prevented the growth of the bacteria.
(§2) For this primary panel, the assay was performed in Mueller-Hinton Broth (MHB) with a final bacterial inoculum of 5×10^5 CFU/mL (from an early-log phase culture) and a final volume of 100 μL. Control drugs, including imipenem, vancomycin, Penicillin G, dicloxacillin (vs. MSSA ATCC29213 only), and new compounds were prepared at a concentration equivalent to 2-fold the desired final concentration. Dilution of compounds were prepared directly in the plates by serial 2-fold dilution using a multichannel pipette. Positive and negative growth control were included in each plate.
(§3) The bacterial inocula were prepared as follows. For each strain one isolated colony was used to inoculate a volume of 8 mL of Mueller-Hinton broth and these cultures were incubated overnight (20 h) at 35° C. in a shaking incubator. At the exception of Enterococcus strains, culture were then diluted 1:10 and allowed to grow for an additional one hour at 35° C. in a shaking incubator. The inocula were prepared by diluting the early log-phase (1 h) cultures 1:1000 with fresh Mueller-Hinton broth. E. faecium and E. faecalis were prepared by diluting overnight cultures 1:333 and 1:666, respectively, with fresh Mueller-Hinton broth. A volume of 50 μL of the inocula was added to each well. […] The exact inocula were determined by applying 10 μL of 10-fold serial dilution of the bacterial suspensions on TSA. After overnight incubation at 35° C., colony forming units were manually counted.
(§4) Microtiter plates were incubated during 24 h at 35° C. and were read using a microtiterplate reader (Molecular Devices) at 650 nm as well as by visual observation using a microtiterplate reading mirror.

E. faecalis ATCC 29212 = experiment: Broth microdilution MIC (NCCLS); format: cell-based; details: Enterococcus faecalis, ATCC29212
Procedure: as §1, §2, §3, §4

E. faecalis VanB (Van^R) = experiment: Broth microdilution MIC (NCCLS); format: cell-based; details: Enterococcus faecalis
Procedure: as §1, §2, §3, §4

E. faecium A491 (Amp^R) = experiment: Broth microdilution MIC (NCCLS); format: cell-based; details: Enterococcus faecium
Procedure: as §1, §2, §3, §4

E. faecium ATCC 35667 = experiment: Broth microdilution MIC (NCCLS); format: cell-based; details: Enterococcus faecium, ATCC35667
Procedure: as §1, §2, §3, §4

E. faecium VanA (Van^R) = experiment: Broth microdilution MIC (NCCLS); format: cell-based; details: Enterococcus faecium
Procedure: as §1, §2, §3, §4

P. aeruginosa ATCC 27853 = experiment: Broth microdilution MIC (NCCLS); format: cell-based; details: Pseudomonas aeruginosa, ATCC27853
Procedure: as §1, §2, §3, §4

[1] = system: S. aureus 76 (Meth^R)(lac^+); experiment: Broth microdilution MIC (NCCLS); format: cell-based; details: Staphylococcus aureus
Procedure: as §1, §2, §3, §4

[2] = system: S. aureus ATCC 13709 (Meth^S); experiment: Broth microdilution MIC (NCCLS); format: cell-based; details: Staphylococcus aureus, ATCC13709, S. aureus ATCC 13709 (Meth^S); read-out: MIC
Procedure: as §1, §2, §3, §4

S. aureus ATCC 29213 = experiment: Broth microdilution MIC (NCCLS); format: cell-based; details: Staphylococcus aureus, ATCC29213; S. aureus ATCC 29213; Mueller-Hinton broth, 24 h at 35° C.; read-out: MIC
Procedure: as §1, §2, §3, §4

[3] = system: S. aureus ATCC 33593 (Meth^R); experiment: Broth microdilution MIC (NCCLS); format: cell-based; details: Staphylococcus aureus, ATCC33593
Procedure: as §1, §2, §3, §4

[4] = system: S. aureus Col (Meth^R)(lac^−); experiment: Broth microdilution MIC (NCCLS); format: cell-based; details: Staphylococcus aureus
Procedure: as §1, §2, §3, §4

[5] = system: S. aureus Col8A (Meth^S)(lac^−); experiment: Broth microdilution MIC (NCCLS); format: cell-based; details: Staphylococcus aureus
Procedure: as §1, §2, §3, §4

[6] = system: S. aureus PC1 (Meth^S)(lac^+); experiment: Broth microdilution MIC (NCCLS); format: cell-based; details: Staphylococcus aureus
Procedure: as §1, §2, §3, §4

[7] = system: S. aureus Spain #356 (Meth^R); experiment: Broth microdilution MIC (NCCLS); format: cell-based; details: Staphylococcus aureus, 24 h
Procedure: as §1, §2, §3, §4

[8] = system: S. haemolyticus 05 (Meth^R); experiment: Broth microdilution MIC (NCCLS); format: cell-based; details: Staphylococcus haemolyticus
Procedure: as §1, §2, §3, §4

S. aureus ATCC29213 = experiment: Human serum binding effect: MIC with and without human serum; format: cell-based, Staphylococcus aureus; details: 1:1 human serum:MHB
Method in brief: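 Serum binding was estimated as the ratio of S. aureus ATCC29213 MIC in 1:1 human serum:Mueller-Hinton broth to MIC without serum. Compounds were serially 2-fold diluted, and wells received an early-log-phase inoculum at 1×10^6 CFU/mL final. Inoculum size was checked by colony counts on TSA after overnight incubation at 35 °C.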

SMILES | MIC (E. coli ATCC25992) [µg/mL] | MIC (E. faecalis ATCC 29212) [µg/mL] | MIC (E. faecalis VanB (Van^R)) [µg/mL] | MIC (E. faecium A491 (Amp^R)) [µg/mL] | MIC (E. faecium ATCC 35667) [µg/mL] | MIC (E. faecium VanA (Van^R)) [µg/mL] | MIC (P. aeruginosa ATCC 27853) [µg/mL] | MIC [1] [µg/mL] | MIC [2] [µg/mL] | MIC (S. aureus ATCC 29213) [µg/mL] | MIC [3] [µg/mL] | MIC [4] [µg/mL] | MIC [5] [µg/mL] | MIC [6] [µg/mL] | MIC [7] [µg/mL] | MIC [8] [µg/mL] | Human serum binding effect (ratio of MIC value determined with and without human serum added) (S. aureus ATCC29213)
NCCSCc1nnc(SC2=C(C(=O)O)N3C(=O)[C@@H](NC(=O)/C(=N\O)c4nc(N)sc4Cl)[C@H]3SC2)s1 [Cmpd 10, (7R)-7-[(Z)-2-(2-amino-5-chlorothiazol-4-yl)-2-(hydroxyimino)acetamido]-3-(2-aminoethylthiomethyl-1,3,4-thiadiazol-5-ylthio)-3-cephem-4-carboxylic acid] | 1 (≈ 1.64 µM) | 0.13 (≈ 0.213 µM) | 0.25 (≈ 0.41 µM) | 8 (≈ 13.1 µM) | 1 (≈ 1.64 µM) | 2 (≈ 3.28 µM) | 16 (≈ 26.3 µM) | 2 (≈ 3.28 µM) | 0.13 (≈ 0.213 µM) | 0.5 (≈ 0.821 µM) | 2 (≈ 3.28 µM) | 2 (≈ 3.28 µM) | 0.25 (≈ 0.41 µM) | 0.5 (≈ 0.821 µM) | 4 (≈ 6.57 µM) | 4 (≈ 6.57 µM) | 1
NCCSCc1nsc(SC2=C(C(=O)O)N3C(=O)[C@@H](NC(=O)/C(=N\O)c4nc(N)sc4Cl)[C@H]3SC2)n1 [Cmpd 12, (7R)-7-[(Z)-2-(2-amino-5-chlorothiazol-4-yl)-2-(hydroxyimino)acetamido]-3-[3-(2-aminoethylthiomethyl)-1,2,4-thiadiazol-5-ylthio]-3-cephem-4-carboxylic acid] | 4 (≈ 6.57 µM) |  | 0.13 (≈ 0.213 µM) | 4 (≈ 6.57 µM) | 0.5 (≈ 0.821 µM) | 1 (≈ 1.64 µM) | > 32 | 1 (≈ 1.64 µM) | 0.25 (≈ 0.41 µM) | 0.5 (≈ 0.821 µM) | 1 (≈ 1.64 µM) | 1 (≈ 1.64 µM) | 0.5 (≈ 0.821 µM) | 0.13 (≈ 0.213 µM) | 1 (≈ 1.64 µM) | 2 (≈ 3.28 µM) | 256
